What was measured:
PBMC = conditions: cited from earlier work
[1] = system: peripheral blood CD3+ T cells; assay: TCR/CD3 (anti-CD3) stimulated T cell proliferation, [3H]-thymidine incorporation; assay type: cell-based, human; conditions: T cells from normal blood donors, FIG. 3A
Method: (§1) Human peripheral blood CD3+ T cells were purified by negative selection from 50 ml of heparin-treated blood from normal healthy donors (Ullevaal University Hospital Blood Center, Oslo. Norway) or patients. Briefly, peripheral blood mononuclear cells were isolated by density gradient (Lymphoprep, NycoMed, Oslo, Norway) centrifugation followed by negative selection using monodisperse magnetic beads directly coated with antibodies to CD14 and CD19 and rat anti-mouse IgG beads coated with antibodies to CD56 and a magnet. Magnetic beads were all from Dynal (Oslo, Norway, cat. no. 111.12, 111.04, and 110.11. respectively) whereas anti-CD56 antibody was from Pharmingen (San Diego, Calif., cat. no. 31660.d). All steps were performed at 4° C.
as §1, with “Peripheral blood” for “Human peripheral blood”, “Center, Oslo,” for “Center, Oslo.”, “selection using,” for “selection using”, “and 110.11,” for “and 110.11.”, “Calif., eat.” for “Calif., cat.”
Proliferation assays were performed by incubation of 0.75×10^6 CM+ T cells/ml in a 100 μl volume in that-bottom 96-well microtiter plates. Activation was achieved by subsequent addition of monodisperse magnetic beads coated with sheep anti-mouse IgG (Dynal. cat. no. 110.02) at a cell:bead ratio of 1:1 followed by addition of antiCD3 (clone SpvT3b) at a final dilution of 1:125,000 for the experiments shown. The optimal concentration of antibody was titrated carefully in the initial setup and parallel experiments at several different dilutions of antibody was always performed. Proliferation was analyzed by incubating, cells for 72 hours during which [^3H]thymidine was included for the last 16 hours. Cells were washed and harvested onto filters using a Scatron harvester (Suffolk, UK) and subsequently analyzed by β-scintillation counting. cAMP analogs, when used, were added 30 min prior to activation by addition of […] antibodies. 8-CPT-cAMP was from Sigorna (St. Louis, Mo.) and Sp- and Rp-8-Br-cAMPS were from BioLog Life Science Company (Bremen, Germany) and were all dissolved to concentrations of 4 to 10 mM in PBS and concentrations calculated using the extinction coefficients given by the manufacturer.

PKAII isozymes = conditions: cited from earlier work
PKAI isozymes = conditions: cited from earlier work
[2] = system: peripheral blood CD3+ T cells; assay: TCR/CD3 stimulated proliferation of liposome-transfected CD3+ T cells treated with 8-CPT-cAMP; assay type: cell-based, human; conditions: for Effect of peptide on cAMP dependent inhibition of T cell proliferation: increasing concentrations (25 to 100 μM), 8-CPT-cAMP 6.25 μM, FIG. 9
Method: FIG. 8. Reversal of cAMP-mediated inhibition of TUR/CD3 stimulated T cell proliferation by the use of ribozyme to the RIα subunit of protein kinase A type I. TCR/CD3 stimulated proliferation of peripheral blood CD3+ T cells from normal healthy blood donor following treatment with liposomes alone (mock) or with liposomes and RIα ribozyme (RIα rbz, 10 μM) in the absence (solid bars) and presence (open bars) of 8-CPT-cAMP (12,5 μM).
FIG. 9. Reversal of cAMP-mediated inhibition of TCR/CD3 stimulated T cell proliferation by the use of competitor peptide to compete the TCR/CD3 associated anchoring of RIα subunit of protein kinase A type I in T cells. TCR/CD3 stimulated proliferation of peripheral blood CD3+ T cells from normal healthy blood donor following treatment with liposomes alone (mock) or with increasing concentrations (25 to 100 μM) of a competitor peptide (Ht-31) that competes anchoring, to PKA type II or a control peptide (Ht31-P).
FIG. 10. TCR/CD3 stimulated proliferation of peripheral blood CD3+ T cells in the presence of increasing, concentrations of 8-CPT-cAMP. Normalized levels of proliferation of T cells mock transfected with liposomes only (solid circles, continuous line) or incubated with liposomes and Ht31 peptide (35 μM) to compete anchoring of protein kinase A type I (open circles, dotted line) was assessed as [^3H]-thymidine incorporation after 48 h during which [^3H]-thymidine was added for the last 18 h. Note: right shift of the IC50 (arrow) from 1,8 to 4,8 μM in the presence of […].
When transfected as synthetic RNA ribozyme or as a synthetic RNA ribozyme stabilized by incorporation of 2-deoxycytosine and 2-deoxy-uracil analogs into peripheral blood CD3+ T cells, the ribozyme reduced levels of RIα protein to approximately 20% of control levels by removing the RIα mRNA. By this strategy, the majority of protein kinase A type 1 was removed from the T cells. We then assessed the immune responsiveness of CD3+ T cells transfected with ribozyme compared to control (mock) transfected T cells measured as T cell proliferation after activation of T cells by stimulation of the T cell receptor/CD3 complex (TCR/CD3). In order to simulate a T cell dysfunction as that of HIV infection, with elevated levels of cAMP and increased activation of protein kinase A type 1, we treated normal T cells with low dose (12.5 around IC50) of the cAMP analog 8-(4-chlorophenyl)-thio-cAMPS (8-CPT-cAMP). […] For in vivo use pretreatment of ribozymes to allow cellular uptake or introduction into cells as minigenes will be necessary.
We incubated blood CD3+ T cells with increasing concentrations of Ht31 (SEQ. ID. NO 2) peptide. In order to facilitate uptake, cells were treated with liposomes in the presence or absence of-peptide. The optimal concentrations of DOTAP liposomes and anti-CD3 antibody were titrated carefully in order to maintain the membrane stability and normal TCR/CD3-dependent activation of the T cells. Cells were incubated for 20 hours with DOTAP/peptide and incubations continued in the absence (solid bars) or presence of 8-CPT-cAMP (6.25 μM, hatched bars) and activated to proliferation by stimulation of TCR/CD3 T cell immune responsiveness was assessed as [3H]thymidine incorporation.
Next, the effect of the competitor peptide (Ht-31, 35 μM) on T cell proliferation was examined in the presence of increasing concentrations of 8-CPT-cAMP and compared to mock transfected cells treated with the same concentrations of 8-CPT-cAMP (FIG. 10). As shown previously for normal peripheral blood T cells. […] Compared to the left-shifted curves observed with T cells from HIV-infected patients or patients with CIV due to elevated levels of endogenous cAMP activating PKA type 1, the right-shift observed here would be expected to normalize the situation in patients.

[3] = target: RIα subunit of cAMP-dependent protein kinase A type I (human, UniProt P10644 1-381); assay: cell-based or functional assay
Sequence of RIα subunit of cAMP-dependent protein kinase A type I (P10644 whole entry): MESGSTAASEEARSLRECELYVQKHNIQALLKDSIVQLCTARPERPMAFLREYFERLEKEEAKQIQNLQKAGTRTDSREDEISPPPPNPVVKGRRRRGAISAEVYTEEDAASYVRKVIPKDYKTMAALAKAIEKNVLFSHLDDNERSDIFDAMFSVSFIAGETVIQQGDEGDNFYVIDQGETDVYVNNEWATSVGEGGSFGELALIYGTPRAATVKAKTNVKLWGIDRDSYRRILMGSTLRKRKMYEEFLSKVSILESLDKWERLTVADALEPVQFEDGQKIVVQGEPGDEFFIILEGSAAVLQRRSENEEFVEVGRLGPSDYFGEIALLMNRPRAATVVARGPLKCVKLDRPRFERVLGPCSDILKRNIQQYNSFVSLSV

For `C[C@H]1O[C@@H](n2cnc3c(N)ncnc32)C[C@@H]1O` [ddAdo, 2′,5′ dideoxyadenosine], the “Effect on cell proliferation” value (PBMC; PBMC) is given as “increased the cell proliferation”, the “Effect on cellular cAMP levels” value (PBMC; PBMC) is given as “reduced cellular cAMP levels” and the Effective concentrations (PBMC; higher concentrations suppressive or without further effect) is given as about 6 ng/mL.

For `Nc1ncnc2c1nc(Br)n2[C@@H]1O[C@@H]2COP(O)(=S)O[C@@H]2C1O` (some centres unmarked) [Sp-8-Br-cAMPS, Sp-8-Bromo-cAMP-phosphorothioate, reference compound], the “Effect of cAMP agonist on TCR/CD3-stimulated proliferation” value [1] was “inhibited”.

In the case of `Nc1ncnc2c1ncn2[C@@H]1O[C@@H]2CO[P@@](O)(=S)O[C@H]2[C@H]1O` [Rp-cAMPS, Rp-cAMP-phosphorothioate], the “Mode of action on PKAII isozymes” value (PKAII isozymes) is listed as “partial agonist” and the “Mode of action on PKAI isozymes” value (PKAI isozymes) is listed as “full antagonist”.

With “H2N-Asp-Leu-Ile-Glu-Glu-Ala-Ala-Ser-Arg-Ile-Val-Asp-Ala-Val-Ile-Glu-Gln-Val-Lys-Ala-Ala-Gly-Ala-Tyr-COOH (H-DLIEEAASRIVDAVIEQVKAAGAY-OH) [Ht31]” the “Effect of peptide on 8-CPT-cAMP inhibition curve” value ([2]; 35 μM peptide, FIG. 10) was “right-shifted inhibition curve”, the “Effect of peptide on cAMP dependent inhibition of T cell proliferation” value [2] was “reduced sensitivity to cAMP” and the “Effect of peptide on cAMP dependent inhibition of T cell proliferation” value ([2]; listed as Ht-31) was “reversed the cAMP dependent inhibition”.

B1: Ht31 competitor peptide (amino acids 493-515 of the A-kinase anchoring protein (AKAP) Ht31) (peptide)
peptide: H-DLIEEAASRIVDAVIEQVKAAGAY-OH
In the case of B1, the “IC50 of 8-CPT-cAMP for inhibition of TCR/CD3 stimulated T cell proliferation with Ht-31 (35 µM); mock transfected cells had an IC50 around 1.8 µM” value [3] is reported as 4.8 µM and the “TCR/CD3 stimulated proliferation of CD3+ T cells ([3H]thymidine incorporation) in the presence of 8-CPT-cAMP (6.25 µM), peptide delivered with DOTAP liposomes” value [3] is reported as 3 fold.
